Tests used:
barnyard glass = assay: Test Example 2: herbicidal efficacy on rice paddy weeds post-emergence; format: in vivo, Echinochloa crus-galli; conditions: dosage 1000 g/ha; post-emergence, one leaf stage; 21 days after treatment
Outline: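 Plastic pots of 75 cm^2 were filled with clay loam soil and sown with barnyard glass and bulrush seeds, then topped with 75 cm^3 soil containing false pimpernel seeds. The pots were flooded to 5 cm water depth and held in a hot house. Twenty-one days after treatment, herbicidal efficacy was graded against an untreated control.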

false pimpernel [1] = assay: as above; format: in vivo, Lindernia pyxidaria; conditions: dosage 1000 g/ha; post-emergence, one leaf stage; 21 days after treatment
bulrush [2] = assay: as above; format: in vivo, Scirpus juncoides; conditions: dosage 1000 g/ha; post-emergence, one leaf stage; 21 days after treatment
bulrush [3] = assay: Test Example 1: herbicidal efficacy on rice paddy weeds pre-emergence; format: in vivo, Scirpus juncoides; conditions: dosage 1000 g/ha, 21 days
bulrush [4] = assay: Test Example 4: low dosage test for rice paddy weeds; format: in vivo, Scirpus juncoides; conditions: 300 g/ha as an active ingredient; plants treated at the one leaf stage; 21 days after treatment; vs untreated control
Description: (§1) The standard of judgment for herbicidal efficacy (degree of growth inhibition) and phytotoxicity 4 . . . 90%-100% of herbicidal efficacy or phytotoxicity 3 . . . 70%-89% of herbicidal efficacy or phytotoxicity 2 . . . 40%-69% of herbicidal efficacy or phytotoxicity 1 . . . 1%-39% of herbicidal efficacy or phytotoxicity 0 . . . 0% of herbicidal efficacy or phytotoxicity
A 75 cm^2 plastic pot was filled with soil (clay loam) and planted seeds of bulrush which is a rice paddy weed. After covering the top with 75 cm^3 soil, the pot was filled with water so that the soil submerged under 5 cm depth of water and kept in a hot house. The test plants, at the one leaf stage, were treated with the solution of a formulation containing the compound of the present invention as an active ingredient at the predetermined effective dosage (300 g/ha as an active ingredient). The pots were kept in a hot house for 21 days after the treatment and the herbicidal efficacy was investigated and evaluated according to the standard in Test Example 1 by comparing with the untreated control. Further, as a comparative compound, the compound No. 6-28 described in the JP-A-2004-107322 was used.

false pimpernel [5] = assay: Test Example 1: herbicidal efficacy on rice paddy weeds pre-emergence; format: in vivo, Lindernia pyxidaria; conditions: dosage 1000 g/ha, 21 days
[6] = tested on: transplanted paddy rice plant and Bulrush; assay: Test Example 5: selectivity between transplanted paddy rice plant and weeds; format: in vivo; conditions: (highest dosage with no phytotoxicity to paddy rice)/(lowest dosage with effective level 4 on Bulrush); rice 3000-100 g/ha, Bulrush 300-10 g/ha; 21 days
Procedure: as §1
Phytotoxicity test for transplanted paddy rice plants was carried out, as in Test Example 3, by the treatment of 3000, 1000, 300 and 100 (g/ha of the active ingredient) dosage, and herbicidal test to weed post-emergence was carried out to Burlush seeded as in Test Example 2 treating at 300, 100, 30 and 10 (g/ha) dosage. The pots were kept in a hot house for 21 days after the treatment, and the phytotoxicity and the herbicidal efficacy was investigated and evaluated according to the standard in Test Example 1 by comparing with the untreated control. […] Further, as a comparative compound, the compound No. 6-28 described in the JP-A-2004-107322 was used.

[7] = tested on: paddy rice plant (cultivar: Nihonbare); assay: Test Example 3: phytotoxicity test for transplanted paddy rice plant; format: in vivo; conditions: dosage 1000 g/ha; transplanted rice, treated 5 days after transplantation; 21 days after treatment
Outline: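 Clay loam soil was placed in a 75 cm^2 plastic pot and flooded to a water depth of 5 cm. Two Nihonbare paddy rice plants at the two-leaf stage were transplanted 1 cm deep and grown in a hot house. After treatment, pots stayed in the hot house for 21 days, and phytotoxicity was then graded against an untreated control.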

SMILES: CC(C)COC(=O)N(c1ccccc1CN1CC(C)(C(C)C)OC1=O)S(=O)(=O)C(F)(F)F (racemic) [1-102]
- Burnyard grass post (herbicidal efficacy grade) (barnyard glass): 4 (90%-100% of herbicidal efficacy or phytotoxicity)
- False pimpernel post (herbicidal efficacy grade) (false pimpernel [1]): 4 (90%-100% of herbicidal efficacy or phytotoxicity)
- Bulrush post (herbicidal efficacy grade) (bulrush [2]): 4 (90%-100% of herbicidal efficacy or phytotoxicity)
- Bulrush pre (herbicidal efficacy grade) (bulrush [3]): 4 (90%-100% of herbicidal efficacy or phytotoxicity)
- Herbicide effect to Bulrush (bulrush [4]): 4 (90%-100% of herbicidal efficacy or phytotoxicity)
- False pimpernel pre (herbicidal efficacy grade) (false pimpernel [5]): 4 (90%-100% of herbicidal efficacy or phytotoxicity)
- Selective Index [6]: 10
- Phytotoxicity to paddy rice [7]: 1 (1%-39% of herbicidal efficacy or phytotoxicity)

SMILES: CCC1(C)CN(Cc2ccccc2N(C(=O)OCC(C)(C)C)S(=O)(=O)C(F)(F)F)C(=O)O1 (racemic) [1-105]
- Burnyard grass post (herbicidal efficacy grade) (barnyard glass): 4 (90%-100% of herbicidal efficacy or phytotoxicity)
- False pimpernel post (herbicidal efficacy grade) (false pimpernel [1]): 4 (90%-100% of herbicidal efficacy or phytotoxicity)
- Bulrush post (herbicidal efficacy grade) (bulrush [2]): 4 (90%-100% of herbicidal efficacy or phytotoxicity)
- Bulrush pre (herbicidal efficacy grade) (bulrush [3]): 4 (90%-100% of herbicidal efficacy or phytotoxicity)
- Herbicide effect to Bulrush (bulrush [4]): 4 (90%-100% of herbicidal efficacy or phytotoxicity)
- False pimpernel pre (herbicidal efficacy grade) (false pimpernel [5]): 4 (90%-100% of herbicidal efficacy or phytotoxicity)
- Selective Index [6]: 10
- Phytotoxicity to paddy rice [7]: 1 (1%-39% of herbicidal efficacy or phytotoxicity)

SMILES: CCC1(C)CN(Cc2ccccc2N(C(=O)OC)S(=O)(=O)C(F)(F)F)C(=O)O1 (racemic) [1-108]
- Burnyard grass post (herbicidal efficacy grade) (barnyard glass): 4 (90%-100% of herbicidal efficacy or phytotoxicity)
- False pimpernel post (herbicidal efficacy grade) (false pimpernel [1]): 4 (90%-100% of herbicidal efficacy or phytotoxicity)
- Bulrush post (herbicidal efficacy grade) (bulrush [2]): 4 (90%-100% of herbicidal efficacy or phytotoxicity)
- Bulrush pre (herbicidal efficacy grade) (bulrush [3]): 4 (90%-100% of herbicidal efficacy or phytotoxicity)
- Herbicide effect to Bulrush (bulrush [4]): 4 (90%-100% of herbicidal efficacy or phytotoxicity)
- False pimpernel pre (herbicidal efficacy grade) (false pimpernel [5]): 4 (90%-100% of herbicidal efficacy or phytotoxicity)
- Selective Index [6]: 30
- Phytotoxicity to paddy rice [7]: 2 (40%-69% of herbicidal efficacy or phytotoxicity)

SMILES: COC(=O)N(c1ccccc1CN1CC(C)(C2CC2)OC1=O)S(=O)(=O)C(F)(F)F (racemic) [1-110]
- Burnyard grass post (herbicidal efficacy grade) (barnyard glass): 4 (90%-100% of herbicidal efficacy or phytotoxicity)
- False pimpernel post (herbicidal efficacy grade) (false pimpernel [1]): 4 (90%-100% of herbicidal efficacy or phytotoxicity)
- Bulrush post (herbicidal efficacy grade) (bulrush [2]): 4 (90%-100% of herbicidal efficacy or phytotoxicity)
- Bulrush pre (herbicidal efficacy grade) (bulrush [3]): 4 (90%-100% of herbicidal efficacy or phytotoxicity)
- Herbicide effect to Bulrush (bulrush [4]): 4 (90%-100% of herbicidal efficacy or phytotoxicity)
- False pimpernel pre (herbicidal efficacy grade) (false pimpernel [5]): 4 (90%-100% of herbicidal efficacy or phytotoxicity)
- Selective Index [6]: ≧30
- Phytotoxicity to paddy rice [7]: 2 (40%-69% of herbicidal efficacy or phytotoxicity)

SMILES: CCOC(=O)N(c1ccccc1CN1CC(C)(C2CC2)OC1=O)S(=O)(=O)C(F)(F)F (racemic) [1-111]
- Burnyard grass post (herbicidal efficacy grade) (barnyard glass): 4 (90%-100% of herbicidal efficacy or phytotoxicity)
- False pimpernel post (herbicidal efficacy grade) (false pimpernel [1]): 4 (90%-100% of herbicidal efficacy or phytotoxicity)
- Bulrush post (herbicidal efficacy grade) (bulrush [2]): 4 (90%-100% of herbicidal efficacy or phytotoxicity)
- Bulrush pre (herbicidal efficacy grade) (bulrush [3]): 4 (90%-100% of herbicidal efficacy or phytotoxicity)
- Herbicide effect to Bulrush (bulrush [4]): 4 (90%-100% of herbicidal efficacy or phytotoxicity)
- False pimpernel pre (herbicidal efficacy grade) (false pimpernel [5]): 4 (90%-100% of herbicidal efficacy or phytotoxicity)
- Selective Index [6]: ≧30
- Phytotoxicity to paddy rice [7]: 2 (40%-69% of herbicidal efficacy or phytotoxicity)

SMILES: CCCOC(=O)N(c1ccccc1CN1CC(C)(C2CC2)OC1=O)S(=O)(=O)C(F)(F)F (racemic) [1-112]
- Burnyard grass post (herbicidal efficacy grade) (barnyard glass): 4 (90%-100% of herbicidal efficacy or phytotoxicity)
- False pimpernel post (herbicidal efficacy grade) (false pimpernel [1]): 4 (90%-100% of herbicidal efficacy or phytotoxicity)
- Bulrush post (herbicidal efficacy grade) (bulrush [2]): 4 (90%-100% of herbicidal efficacy or phytotoxicity)
- Bulrush pre (herbicidal efficacy grade) (bulrush [3]): 4 (90%-100% of herbicidal efficacy or phytotoxicity)
- Herbicide effect to Bulrush (bulrush [4]): 4 (90%-100% of herbicidal efficacy or phytotoxicity)
- False pimpernel pre (herbicidal efficacy grade) (false pimpernel [5]): 4 (90%-100% of herbicidal efficacy or phytotoxicity)
- Selective Index [6]: 30
- Phytotoxicity to paddy rice [7]: 2 (40%-69% of herbicidal efficacy or phytotoxicity)

SMILES: CCCCOC(=O)N(c1ccccc1CN1CC(C)(C2CC2)OC1=O)S(=O)(=O)C(F)(F)F (racemic) [1-113]
- Burnyard grass post (herbicidal efficacy grade) (barnyard glass): 4 (90%-100% of herbicidal efficacy or phytotoxicity)
- False pimpernel post (herbicidal efficacy grade) (false pimpernel [1]): 4 (90%-100% of herbicidal efficacy or phytotoxicity)
- Bulrush post (herbicidal efficacy grade) (bulrush [2]): 4 (90%-100% of herbicidal efficacy or phytotoxicity)
- Bulrush pre (herbicidal efficacy grade) (bulrush [3]): 4 (90%-100% of herbicidal efficacy or phytotoxicity)
- Herbicide effect to Bulrush (bulrush [4]): 4 (90%-100% of herbicidal efficacy or phytotoxicity)
- False pimpernel pre (herbicidal efficacy grade) (false pimpernel [5]): 4 (90%-100% of herbicidal efficacy or phytotoxicity)
- Selective Index [6]: 30
- Phytotoxicity to paddy rice [7]: 1 (1%-39% of herbicidal efficacy or phytotoxicity)

SMILES: COC(=O)N(c1ccccc1CN1CC(C)(C(C)C)OC1=O)S(=O)(=O)C(F)(F)F (racemic) [1-114]
- Burnyard grass post (herbicidal efficacy grade) (barnyard glass): 4 (90%-100% of herbicidal efficacy or phytotoxicity)
- False pimpernel post (herbicidal efficacy grade) (false pimpernel [1]): 4 (90%-100% of herbicidal efficacy or phytotoxicity)
- Bulrush post (herbicidal efficacy grade) (bulrush [2]): 4 (90%-100% of herbicidal efficacy or phytotoxicity)
- Bulrush pre (herbicidal efficacy grade) (bulrush [3]): 4 (90%-100% of herbicidal efficacy or phytotoxicity)
- Herbicide effect to Bulrush (bulrush [4]): 4 (90%-100% of herbicidal efficacy or phytotoxicity)
- False pimpernel pre (herbicidal efficacy grade) (false pimpernel [5]): 4 (90%-100% of herbicidal efficacy or phytotoxicity)
- Selective Index [6]: 30
- Phytotoxicity to paddy rice [7]: 2 (40%-69% of herbicidal efficacy or phytotoxicity)

SMILES: CCOC(=O)N(c1ccccc1CN1CC(C)(C(C)C)OC1=O)S(=O)(=O)C(F)(F)F (racemic) [1-115]
- Burnyard grass post (herbicidal efficacy grade) (barnyard glass): 4 (90%-100% of herbicidal efficacy or phytotoxicity)
- False pimpernel post (herbicidal efficacy grade) (false pimpernel [1]): 4 (90%-100% of herbicidal efficacy or phytotoxicity)
- Bulrush post (herbicidal efficacy grade) (bulrush [2]): 4 (90%-100% of herbicidal efficacy or phytotoxicity)
- Bulrush pre (herbicidal efficacy grade) (bulrush [3]): 4 (90%-100% of herbicidal efficacy or phytotoxicity)
- Herbicide effect to Bulrush (bulrush [4]): 4 (90%-100% of herbicidal efficacy or phytotoxicity)
- False pimpernel pre (herbicidal efficacy grade) (false pimpernel [5]): 4 (90%-100% of herbicidal efficacy or phytotoxicity)
- Selective Index [6]: 10
- Phytotoxicity to paddy rice [7]: 3 (70%-89% of herbicidal efficacy or phytotoxicity)

SMILES: CCCOC(=O)N(c1ccccc1CN1CC(C)(C(C)C)OC1=O)S(=O)(=O)C(F)(F)F (racemic) [1-116]
- Burnyard grass post (herbicidal efficacy grade) (barnyard glass): 4 (90%-100% of herbicidal efficacy or phytotoxicity)
- False pimpernel post (herbicidal efficacy grade) (false pimpernel [1]): 4 (90%-100% of herbicidal efficacy or phytotoxicity)
- Bulrush post (herbicidal efficacy grade) (bulrush [2]): 4 (90%-100% of herbicidal efficacy or phytotoxicity)
- Bulrush pre (herbicidal efficacy grade) (bulrush [3]): 4 (90%-100% of herbicidal efficacy or phytotoxicity)
- Herbicide effect to Bulrush (bulrush [4]): 4 (90%-100% of herbicidal efficacy or phytotoxicity)
- False pimpernel pre (herbicidal efficacy grade) (false pimpernel [5]): 4 (90%-100% of herbicidal efficacy or phytotoxicity)
- Selective Index [6]: 10
- Phytotoxicity to paddy rice [7]: 1 (1%-39% of herbicidal efficacy or phytotoxicity)

SMILES: CCCCOC(=O)N(c1ccccc1CN1CC(C)(C(C)C)OC1=O)S(=O)(=O)C(F)(F)F (racemic) [1-117]
- Burnyard grass post (herbicidal efficacy grade) (barnyard glass): 4 (90%-100% of herbicidal efficacy or phytotoxicity)
- False pimpernel post (herbicidal efficacy grade) (false pimpernel [1]): 4 (90%-100% of herbicidal efficacy or phytotoxicity)
- Bulrush post (herbicidal efficacy grade) (bulrush [2]): 4 (90%-100% of herbicidal efficacy or phytotoxicity)
- Bulrush pre (herbicidal efficacy grade) (bulrush [3]): 4 (90%-100% of herbicidal efficacy or phytotoxicity)
- Herbicide effect to Bulrush (bulrush [4]): 4 (90%-100% of herbicidal efficacy or phytotoxicity)
- False pimpernel pre (herbicidal efficacy grade) (false pimpernel [5]): 4 (90%-100% of herbicidal efficacy or phytotoxicity)
- Selective Index [6]: 10
- Phytotoxicity to paddy rice [7]: 2 (40%-69% of herbicidal efficacy or phytotoxicity)

— patent US20080274892A1, “Novel Haloalkylsulfonanilide Derivative, Herbicide, and Method of Use Thereof” (priority 2005, published 2008)
